The results in this text go back to patent US5948913A, “Hydrate for drug use” (Daiichi Pharmaceutical Co., Ltd., priority 1994, dated 1999).

Data set [1] is described as follows: Weight / moisture change as a function of humidity. The class given is physicochemical. The method, then:
On the other hand, when methanol was used as the solvent at the time of crystal precipitation, the thus obtained hydrochloride anhydrate of the compound of formula (1) also contained methanol, but it was able to remove the contained methanol almost completely when the crystals were dried with heating (120° C.) under a reduced pressure for several days or more.
(§1) (FIG. 2). Also, changes in its appearance were hardly found and its changes in the content (determination by HPLC) were not found under dry heating conditions (50° C., tightly sealed in a bottle, 1 month) or wet heating conditions (40° C., 75% humidity, 1 month).
FIG. 1 is a graph showing changes in the weight of 3-[2-[4-(3-chloro-2-methylphenyl)-1-piperazinyl]ethyl]-5,6-dimethoxy-1-(4- imidazolylmethyl)-1H-indazole hydrochloride anhydrate plotted as a function of humidity,
FIG. 2 is a graph showing changes in the weight of the 3.5-hydrate of the present invention plotted as a function of humidity, […]

Data set [2] can be described thus: Storage stability under dry heating and wet heating conditions. The data set is classed as physicochemical. The method, then: as §1
For data set [3] the following is noted: in vivo. The method, then:
(§2) With regard to the toxicity, its oral single administration toxicity was 200 mg/kg or more, and serious side effects were not observed in rats by repeated oral administration toxicity test over 10 days and repeated intravenous injection toxicity test over 10 days.

The subject of data set [4] is rats. Conditions: rat, in vivo. The method, then: as §2
Data set [5] relates to dogs. Description: Actions upon hemodynamics and electrocardiogram. The class given is in vivo, dog. The method, then: (§3) Particularly serious actions upon hemodynamics and electrocardiogram were not observed in dogs, and significant central nervous inhibition actions were not observed in rhesus monkeys even when a dose of 10 mg/kg was administered by intravenous injection.

Data set [6] deals with rhesus monkeys. Description: Central nervous inhibition actions. Conditions: 10 mg/kg intravenous injection. The data set is classed as in vivo, rhesus monkey. The method, then:
as §3

The target in data set [7] is calmodulin-dependent phosphodiesterase (PDE). Nature of the data set: Calmodulin inhibition action (calmodulin-dependent phosphodiesterase inhibition). The data set is classed as biochemical. The note with it: CaM and CaM-PDE of bovine brain origin, [3H]-cGMP, 30° C., 10 minutes; read-out: PDE inhibition effect, IC50.
Data set [8] deals with mouse nitrogen-loaded hypoxia model. Nature of the data set: Mouse nitrogen-loaded hypoxia model. The class given is in vivo. Conditions: mice, 30 mg/kg oral, 60 minutes before nitrogen gas feeding. The method, then: This test was carried out in accordance with the method of Albert Wauquier et al. (Japan J. Pharmacol., 38, 1-7 (1985)).
A total of 9 to 10 mice were used in 1 group, and each animal 60 minutes after oral administration of a drug to be tested (30 mg/kg) was put into a transparent container (500 ml capacity) equipped with an air outlet and then the container was fed with nitrogen gas at a rate of 5.0 L/min. The period of time from the commencement of gas feeding until respiratory arrest was measured.

Data set [9] relates to hippocampus CA1 nerve cells. Description: Changes in hippocampus nerve cells in cerebral ischemia model. The class given is in vivo. The note with it: jird, 5 minutes cerebral ischemia, 100 mg/kg oral 1 hour after ischemia loading. The method, then:
When transient cerebral ischemia is loaded on a jird, hippocampus nerve cells start to get necrosis several days thereafter, and such a change is called delayed nerve cell death. The following test was carried out in accordance with the method of T. Kirino (Brain Res., 239, 57-69 (1982)). That is, each jird was loaded with 5 minutes of cerebral ischemia and then sacrificed to count the number of nerve cells remained in the hippocampus CA1 region.

The test system of data set [10] is rat microsphere cerebral embolus model. Description: Anti-edema effect in rat microsphere cerebral embolus model. The data set is classed as in vivo. The note with it: 8 hr, intravenous infusion, 24 hours after operation. The method, then: This test was carried out in accordance with the method of Nobutaka Demura et al. (Neuroscience Res., 17, 23-30 (1983)).
Under halothane anesthesia, a Slc;Wis rat (about 300 g) which has been treated with caudal vein cannulation in advance was subjected to neck incision to tear off the left side common carotid artery. Wing process palate artery and external carotid artery on the same side were also torn off and subjected to artery clipping. Carbon microspheres (50±10 μm in diameter) were suspended in 20% dextran and injected into the left side common carotid artery to effect dispersion of the microspheres in the left cerebral hemisphere via the left internal carotid artery, the common carotid artery was immediately clipped to stop bleeding from the microsphere-injected part, and then the artery clip was removed to restart blood circulation. Thereafter, each drug solution was continuously injected using an infusion pump from the catheter which has been inserted into caudal vein.
Each animal was sacrificed by decapitation 24 hours after the operation, and the brain was excised immediately after the decapitation to measure wet weights of both left and right hemispheres. Each tissue was then dried overnight at 150° C. to measure its dry weight and to calculate water content of each hemisphere.
As a control group, a vehicle group (20% dextran only) was arranged and treated in the same manner.

[11] abbreviates: dry heating conditions (50° C., tightly sealed in a bottle, 1 month).
The mark [12] stands for this setting: wet heating conditions (40° C., 75% humidity, 1 month).

pIC50: −log10 of the molar value. Where a name gives a salt, the structure may show the parent alone. Read-outs that look alike come from different tables or passages of the source.

In the case of `COc1cc2c(CCN3CCN(c4cccc(Cl)c4C)CC3)nn(Cc3c[nH]cn3)c2cc1OC` [Inventive Example 3, 3-[2-[4-(3-Chloro-2-methylphenyl)-1-piperazinyl]ethyl]-5,6-dimethoxy-1-(4-imidazolylmethyl)-1H-indazole dihydrochloride 3.5-hydrate], the “changes in powder X-ray diffraction pattern or detectable water content” value in data set [1] (relative humidity changed from about 20% to about 80% at 25° C., FIG. 2) was “did not show changes”. Moreover, in data set [2] (setting [11]), the changes in appearance entry was “hardly found” and the “changes in the content (determination by HPLC)” value is reported as “not found”. Also, in data set [2] (setting [12]), the changes in appearance entry was “hardly found” and the “changes in the content (determination by HPLC)” value is on record as “not found”.

In general, pIC50 refers to the negative decadic logarithm of the IC50, by convention in mol/L. As for `COc1cc2c(CCN3CCN(c4cccc(Cl)c4C)CC3)nn(Cc3c[nH]cn3)c2cc1OC` [compound of the present invention, 3-[2-[4-(3-chloro-2-methylphenyl)-1-piperazinyl]ethyl]-5,6-dimethoxy-1-(4-imidazolylmethyl)-1H-indazole], the “oral single administration toxicity” value in data set [3] is ≥ 200 mg/kg. The serious side effects result in data set [4] (iv) and in data set [4] (po) was “not observed” each time. Moreover, the “particularly serious actions upon hemodynamics and electrocardiogram” value in data set [5] is recorded as “not observed”. Moreover, the “significant central nervous inhibition actions” value in data set [6] is listed as “not observed”. Also, in data set [7], the pIC50 was 5.26. The “increasing ratio of time until respiratory arrest (control group defined as 100%)” value in data set [8] came to 15.1%. Besides, the “protecting effect against nerve cell death” value in data set [9] is given as “distinct protecting effect”. In data set [9] (CA1 region), the “Hippocampus Nerve Cell Density” value stood at 131 ± 21.2 cells/mm. Besides, the “Water content, Control Side (right hemisphere)” value in [10] (dose 1 mg/kg/hr) worked out at 78.8 ± 0.1%; in [10] (dose 2 mg/kg/hr), 78.7 ± 0.1%. Also, the results for the “Water content, Disease Side (left hemisphere)” value in data set [10] (dose 1 mg/kg/hr) and in data set [10] (dose 2 mg/kg/hr) were 80.1 ± 0.4% and 79.8 ± 0.3%, respectively.

As to `COc1cc2c(CCN3CCN(c4cccc(Cl)c4C)CC3)nn(Cc3c[nH]cn3)c2cc1OC` [Inventive Example 2, 3-[2-[4-(3-Chloro-2-methylphenyl)-1-piperazinyl]ethyl]-5,6-dimethoxy-1-(4-imidazolylmethyl)-1H-indazole 1.5-hydrochloride (anhydrous crystals)], in [1] (room temperature, anhydrate after removal of methanol, FIG. 1), the “moisture absorption in response to environmental humidity” value is listed as “absorb moisture in response to the environmental humidity”.
